Laboratory results: patent US11661437B2, “Steroid derivative regulators, method for preparing the same, and uses thereof” (priority 2018, dated 2023)

Tests used:
GABA-A receptor = test: 35S-TBPS binding assay on rat cerebral cortex cell membrane; parameters: species or system Sprague-Dawley rat; details: 2 nM 35S-TBPS, GABA added, read-out: 35S-TBPS bindng test, IC50 on inhibiting the TBPS binding activity
Procedure, shortened: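 Male Sprague-Dawley rat cortical membranes in PBS were preincubated 5 min at 25 °C with compound (8-point 3-fold series […], 1% DMSO), then with GABA ([…]). 2 nM 35S-TBPS was added for 20 h at 4 °C, followed by GF/C filtration and scintillation counting. % inhibition was normalised to DMSO and 10 μM reference controls, with IC50 from a 4-parameter fit.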

[1] = Pharmacokinetic assay in Balb/c mice (plasma and brain tissue); type: in vivo; details: male, Balb/c, mouse, in vivo, po, 5 mg/kg; for AUC(0-t): Area under curve AUC0-t; for AUC(0-inf): Area under curve AUC0-∞; for half-life: Half-life t1/2; for MRT: Mean residence time MRT; for Tmax: Peak time tmax; for Cmax: Plasma concentration Cmax
Description: Balb/c mice were used as test animals. The pharmacokinetic behavior in mice (plasma and brain tissue) of the compounds of Example 2, Example 5, Example 7, Example 12, Example 18, Example 23, Example 26, Example 38, Example 41, Example 50, Example 51 and Example 66 orally administrated at a dose of 5 mg/kg was studied.
Each group had 24 male Balb/c mice. After an overnight fast, Balb/c mice were administrated p.o. with the test compound at an administration dose of 5 mg/kg and an administration volume of 10 mL/kg.
0.2 ml of blood was taken from the heart before administration and at 0, 0.5, 1, 2, 4, 6, 8 and 24 hours after administration. The samples were stored in EDTA-K2 tubes, and centrifuged for 6 minutes at 4° C., 6000 rpm to separate the plasma. The plasma samples were stored at −80° C. The mice were sacrificed with CO2, and the whole brain tissue was taken out, weighed, placed in a 2 mL centrifuge tube and stored at −80° C.
1) 160 μL of acetonitrile was added to 40 μL of the plasma sample for precipitation, and then the mixture was centrifuged for 5-20 minutes at 3500×g.
2) 90 μL of acetonitrile containing the internal standard (100 ng/mL) was added to 30 μL of the plasma and brain homogenate samples for precipitation, and then the mixture was centrifuged for 8 minutes at 13000 rpm.
3) 70 μL of the treated supernatant was taken and added to 70 μL of water, and mixed by vortex for 10 minutes. 20 μL of the mixture was taken to analyze the concentration of the test compound by LC/MS/MS. LC/MS/MS analysis instrument: AB Sciex API 4000 Qtrap.
2.6 Liquid Chromatography Analysis • Liquid chromatography condition: Shimadzu LC-20AD pump. • Chromatographic column: Agilent ZORBAX XDB-C18 (50×2.1 mm, 3.5 μm); Mobile phase: Eluent A was 0.1% formic acid in water, and Eluent B was acetonitrile. • Flow rate: 0.4 mL/min • Elution time: 0-4.0 minutes the eluent is as follows:
The main parameters of pharmacokinetics were calculated by WinNonlin 6.1.

ICR mice = test: In vivo pharmacodynamic test in the forced swimming model in mice; details: 10 mpk p.o.; for Mean (immobility, %): floating time percentage = 100*floating time/240 s; for Mean (immobility, s): latter four minutes of 6 min swim
Description: The antidepressant effect of the compound was evaluated by the forced swimming model in mice.
Male ICR mice (25-35 g) were adapted in the test environment for 3 days before the forced swimming test.
According to the test design, the mice were randomly grouped on the day before the test according to body weight, with 12 mice in each group. Before the test, the compounds of each example were administrated intragastrically according to the Tmax thereof in the brain in mice pharmacokinetic test as follows:
1) Model group (0.5% CMC-Na+1% Tween 80 solution, p.o., 10 mL/kg);
2) Compounds of Example 2, Example 5, Example 7, Example 18, Example 23, Example 26 and Example 50 (10 mg/kg, p.o., 10 mL/kg).
When being administrated, the compounds of each example were suspended in 0.5% CMC-Na-1% Tween 80 solution to the desired concentration.
0.5-1 hour after administration, ICR mice were placed in a forced swimming device (transparent glass drum (water depth 18 cm, water temperature 25-26° C.), one mouse per tank) and forced to swim for 6 minutes. The forced swimming device recorded the floating time of the ICR mice during the entire 6 minutes, and the data of the latter four minutes were used for data analysis. The mice were taken out immediately after the swimming test, wiped dry and put back in their original cages.
Note: The criterion for determining the immobility time is that the mouse stops struggling in water and floats, and there are only slight limb movements to keep the head floating on the water.
3.4 Data Analysis Floating time percentage=100*floating time/240 s.

SMILES | IC50 (GABA-A receptor) | Area under curve AUC0-t [1] | Area under curve AUC0-∞ [1] | Half-life t1/2 [1] | Mean residence time MRT [1] | Plasma concentration Cmax [1] | AUC(0-t) [1] | AUC(0-inf) [1] | half-life [1] | MRT [1] | Tmax [1] | Cmax [1] | Mean (immobility, %) (ICR mice) | Mean (immobility, s) (ICR mice)
C[C@@]1(O)CC[C@@]2(F)[C@H](CC[C@H]3[C@@H]4CC[C@H](C(=O)Cn5nc6ccc(F)cc6n5)[C@@]4(C)CC[C@@H]32)C1 [Example 18, 2-(5-Fluoro-2H-benzo[d][1,2,3]triazol-2-yl)-1-((3R,5R,8S,9S,10R,13S,14S,17S)-10-fluoro-3-hydroxy-3,13-dimethylhexadecahydro-1H-cyclopenta[a]phenanthren-17-yl)ethan-1-one] | 10 nM | 2141.1 ng·h/mL | 2186.8 ng·h/mL | 4.7 h | 6.1 h | 281.7 ng/mL | 1520 ng·h/mL | 1540 ng·h/mL | 4.2 h | 5.5 h | 1 h | 236 ng/mL | 61.19% | 146.86 s
C[C@@]1(O)CC[C@@]2(F)[C@H](CC[C@H]3[C@@H]4CC[C@H](C(=O)Cn5cc(C(F)(F)F)cn5)[C@@]4(C)CC[C@@H]32)C1 [Example 7, 1-((3R,5R,8S,9S,10R,13S,14S,17S)-10-Fluoro-3-hydroxy-3,13-dimethylhexadecahydro-1H-cyclopenta[a]phenanthren-17-yl)-2-(4-(trifluoromethyl)-1H-pyrazol-1-yl)ethan-1-one] | 12.4 nM | 5106.0 ng·h/mL | 5514.3 ng·h/mL | 1.89 h | 3.37 h | 1263.3 ng/mL | 3780 ng·h/mL | 3780 ng·h/mL | 1.73 h | 3.67 h | 1 h | 888 ng/mL | 58.99% | 141.58 s
